This note sets out measurements from US6737409B2, “Dolastatin 10 derivatives” (Hoffmann-La Roche Inc., priority 2001, dated 2004).

SMILES strings stand for the structures. Like-named read-outs stand apart in the source and are kept apart here.

As usually defined, the IC50 is the concentration that inhibits the measured activity by half.

In the assay the test system is HCT 116. As to the kind of experiment: Antiproliferative activity assay (WST-8). It counts as cell-based. How it is done: Antiproliferative activity assay was carried out as follows. A single suspension of tumor cells was inoculated to the serially diluted 96-well microtestplate. Then the testplate was incubated in the 5% CO2 ambience at 37° C. for 4 days (2-3×10^3 cells/well). The degree of cell growth in a monolayer was measured by using WST-8 (Dojindo, Japan). IC50 values of drugs against tumor cells were calculated as the concentration of drug yielding 50% OD of the control growth.

Where [1] appears, read: Homo sapiens, HCT-116, 96 h, incubated 4 days, WST-8, concentration of drug yielding 50% OD of the control growth, read-out: HCT 116 IC50.
The mark [2] stands for this setting: incubated 4 days, WST-8, concentration of drug yielding 50% OD of the control growth, read-out: HCT 116 IC50.

Take `CCC(C)C(C(CC(=O)N1CCCC1C(CC(=O)NCCc1ccc(O)cc1)SC)OC)N(C)C(=O)C(NC(=O)C(C(C)C)N(C)C)C(C)C` (centres unmarked) [N-(1-{[1-sec-Butyl-4-(2-{2-[2-(4-hydroxy-phenyl)-ethylcarbamoyl]-1-methylsulfanyl-ethyl}-pyrrolidin-1-yl)-2-methoxy-4-oxo-butyl]-methyl-carbamoyl}-2-methyl-propyl)-2-dimethylamino-3-methyl-butyramide]: under setting [1], the half-inhibitory concentration (IC50) was 0.6 nM. The same measure, in the same setting: the figure for `CCCCCSC(CC(=O)NCCc1ccccc1)C1CCCN1C(=O)CC(OC)C(C(C)CC)N(C)C(=O)C(NC(=O)C(C(C)C)N(C)C)C(C)C` (centres unmarked) [N-[1-({1-sec-Butyl-2-methoxy-4-oxo-4-[2-(1-pentylsulfanyl-2-phenethylcarbamoyl-ethyl)-pyrrolidin-1-yl]-butyl}-methyl-carbamoyl)-2-methyl-propyl]-2-dimethylamino-3-methyl-butyramide] is 0.75 nM.

On to `CCC(C)C(C(CC(=O)N1CCCC1C(CC(=O)NCCc1ccccc1)SCCOC(C)=O)OC)N(C)C(=O)C(NC(=O)C(C(C)C)N(C)C)C(C)C` (centres unmarked) [Acetic acid 2-{1-[1-(4-{[2-(2-dimethylamino-3-methyl-butyrylamino)-3-methyl-butyryl]-methyl-amino}-3-methoxy-5-methyl-heptanoyl)-pyrrolidin-2-yl]-2-phenethylcarbamoyl-ethylsulfanyl}-ethyl ester], for which the IC50 under setting [1] stood at 0.19 nM.

Take `CCC(C)C(C(CC(=O)N1CCCC1C(CC(=O)NCCc1ccccc1)Sc1ccccc1)OC)N(C)C(=O)C(NC(=O)C(C(C)C)N(C)C)C(C)C` (centres unmarked) [N-[1-({1-sec-Butyl-2-methoxy-4-oxo-4-[2-(2-phenethylcarbamoyl-1-phenylsulfanyl-ethyl)-pyrrolidin-1-yl]-butyl}-methyl-carbamoyl)-2-methyl-propyl]-2-dimethylamino-3-methyl-butyramide]: the IC50 under setting [1] was found to be 0.33 nM. Turning to `CCSC(CC(=O)NCCc1ccccc1)C1CCCN1C(=O)CC(OC)C(C(C)CC)N(C)C(=O)C(NC(=O)C(NC)C(C)C)C(C)C` (centres unmarked) [N-[1-({1-sec-Butyl-4-[2-(1-ethylsulfanyl-2-phenethylcarbamoyl-ethyl)-pyrrolidin-1-yl]-2-methoxy-4-oxo-butyl}-methyl-carbamoyl)-2-methyl-propyl]-3-methyl-2-methylamino-butyramide], the IC50 under setting [1] was 0.5 nM. Still for that read-out and setting: the figure for `CCC(C)C(C(CC(=O)N1CCCC1C(CC(=O)NCCc1cccnc1)SC)OC)N(C)C(=O)C(NC(=O)C(C(C)C)N(C)C)C(C)C` (centres unmarked) [N-{1-[(1-sec-Butyl-2-methoxy-4-{2-[1-methylsulfanyl-2-(2-pyridin-3-yl-ethylcarbamoyl)-ethyl]-pyrrolidin-1-yl}-4-oxo-butyl)-methyl-carbamoyl]-2-methyl-propyl}-2-dimethylamino-3-methyl-butyramide] is 0.91 nM. As for `CCC(C)C(C(CC(=O)N1CCCC1C(SC)C(C)C(=O)NCCc1ccccc1)OC)N(C)C(=O)C(NC(=O)C(C(C)C)N(C)C)C(C)C` (centres unmarked) [N-[1-({1-sec-Butyl-2-methoxy-4-[2-(1-methylsulfanyl-2-phenethylcarbamoyl-propyl)-pyrrolidin-1-yl]-4-oxo-butyl}-methyl-carbamoyl)-2-methyl-propyl]-2-dimethylamino-3-methyl-butyramide], under setting [1], the IC50 worked out at 0.04 nM. For the compound `CCC(C)C(C(CC(=O)N1CCCC1C(CC(=O)NCCc1ccccc1O)SC)OC)N(C)C(=O)C(NC(=O)C(C(C)C)N(C)C)C(C)C` (centres unmarked) [N-(1-{[1-sec-Butyl-4-(2-{2-[2-(2-hydroxy-phenyl)-ethylcarbamoyl]-1-methylsulfanyl-ethyl}-pyrrolidin-1-yl)-2-methoxy-4-oxo-butyl]-methyl-carbamoyl}-2-methyl-propyl)-2-dimethylamino-3-methyl-butyramide], the 50% inhibitory concentration (IC50) under setting [1] was found to be 0.64 nM. On the same count and under the same terms, then `CCC(C)C(C(CC(=O)N1CCCC1C(CC(=O)NCCc1ccccc1)SCCO)OC)N(C)C(=O)C(NC(=O)C(C(C)C)N(C)C)C(C)C` (centres unmarked) [N-{1-[(1-sec-Butyl-4-{2-[1-(2-hydroxy-ethylsulfanyl)-2-phenethylcarbamoyl-ethyl]-pyrrolidin-1-yl}-2-methoxy-4-oxo-butyl)-methyl-carbamoyl]-2-methyl-propyl}-2-dimethylamino-3-methyl-butyramide], with 0.39 nM; and `CCC(C)C(C(CC(=O)N1CCCC1C(CC(=O)NCCc1ccccc1)Sc1cccc(O)c1)OC)N(C)C(=O)C(NC(=O)C(C(C)C)N(C)C)C(C)C` (centres unmarked) [N-{1-[(1-sec-Butyl-4-{2-[1-(3-hydroxy-phenylsulfanyl)-2-phenethylcarbamoyl-ethyl]-pyrrolidin-1-yl}-2-methoxy-4-oxo-butyl)-methyl-carbamoyl]-2-methyl-propyl}-2-dimethylamino-3-methyl-butyramide], with 0.3 nM.

Turning to `CCNC(=O)OCCSC(CC(=O)NCCc1ccccc1)C1CCCN1C(=O)CC(OC)C(C(C)CC)N(C)C(=O)C(NC(=O)C(C(C)C)N(C)C)C(C)C` (centres unmarked) [Ethyl-carbamic acid 2-{1-[1-(4-{[2-(2-dimethylamino-3-methyl-butyrylamino)-3-methyl-butyryl]-methyl-amino}-3-methoxy-5-methyl-heptanoyl)-pyrrolidin-2-yl]-2-phenethylcarbamoyl-ethylsulfanyl}-ethyl ester], under setting [1], the IC50 was 0.97 nM. On the same count and under the same terms, the figure for `CCC(C)C(C(CC(=O)N1CCCC1C(CC(=O)NCCc1ccccc1)SCc1ccccc1)OC)N(C)C(=O)C(NC(=O)C(C(C)C)N(C)C)C(C)C` (centres unmarked) [N-[1-({4-[2-(1-Benzylsulfanyl-2-phenethylcarbamoyl-ethyl)-pyrrolidin-1-yl]-1-sec-butyl-2-methoxy-4-oxo-butyl}-methyl-carbamoyl)-2-methyl-propyl]-2-dimethylamino-3-methyl-butyramide] is 0.52 nM. Still for that read-out and setting: the figure for `CCC(C)C(C(CC(=O)N1CCCC1C(CC(=O)NCCc1ccccc1)Sc1ccc(NC(C)=O)cc1)OC)N(C)C(=O)C(NC(=O)C(C(C)C)N(C)C)C(C)C` (centres unmarked) [N-{1-[(4-{2-[1-(4-Acetylamino-phenylsulfanyl)-2-phenethylcarbamoyl-ethyl]-pyrrolidin-1-yl}-1-sec-butyl-2-methoxy-4-oxo-butyl)-methyl-carbamoyl]-2-methyl-propyl}-2-dimethylamino-3-methyl-butyramide] is 0.98 nM. Consider `CCC(C)C(C(CC(=O)N1CCCC1C(SC)C(C)C(=O)NCCc1ccccc1)OC)N(C)C(=O)C(NC(=O)C(NC)C(C)C)C(C)C` (centres unmarked) [N-[-({1-sec-Butyl-2-methoxy-4-[2-(1-methylsulfanyl-2-phenethylcarbamoyl-propyl)-pyrrolidin-1-yl]-4-oxo-butyl}-methyl-carbamoyl)-2-methyl-propyl]-2-methylamino-3 methyl-butyramide], for which the concentration for half-maximal inhibition (IC50) under setting [2] came out at 1 nM. Still for that read-out and setting: then `CCC(C)C(C(CC(=O)N1CCCC1C(CC(=O)NCCc1ccccc1)Sc1ccccc1)OC)N(C)C(=O)C(NC(=O)C(NC)C(C)C)C(C)C` (centres unmarked) [N-[-({1-sec-Butyl-2-methoxy-4-oxo-4-[2-(2-phenethylcarbamoyl-1-phenylsulfanyl-ethyl)-pyrrolidin-1-yl]-butyl}-methyl-carbamoyl)-2-methyl-propyl]-3-methyl-2-methylamino-butyramide], with 0.87 nM. Turning to `CCNC(=O)Oc1cccc(CCNC(=O)C(C)C(SC)C2CCCN2C(=O)CC(OC)C(C(C)CC)N(C)C(=O)C(NC(=O)C(C(C)C)N(C)C)C(C)C)c1` (centres unmarked) [Ethyl-carbamic acid 3-(2-{3-[1-(4-{[2-(2-dimethylamino-3-methyl-butyrylamino)-3-methyl-butyryl]-methyl-amino}-3-methoxy-5-methyl-heptanoyl)-pyrrolidin-2-yl]-2-methyl-3-methylsulfanyl-propionylamino}-ethyl)-phenyl ester], the IC50 (Homo sapiens, HCT-116, 96 h, read-out: HCT 116 IC50 (nM)) was 0.57 nM. `CCC(C)C(C(CC(=O)N1CCCC1[C@@H](CC(=O)NCCc1ccccc1)SC(C)(C)C)OC)N(C)C(=O)C(NC(=O)C(C(C)C)N(C)C)C(C)C` (stereo partly drawn) [N-[1-({1-sec-Butyl-4-[2-(1-(R)-tert-butylsulfanyl-2-phenethylcarbamoyl-ethyl)-pyrrolidin-1-yl]-2-methoxy-4-oxo-butyl}-methyl-carbamoyl)-2-methyl-propyl]-2-dimethylamino-3-methyl-butyramide]: the IC50 under setting [1] amounted to 0.04 nM.

Consider `CCC(C)C(C(CC(=O)N1CCCC1[C@@H](CC(=O)NCCc1ccccc1)Sc1ccc(O)cc1)OC)N(C)C(=O)C(NC(=O)C(C(C)C)N(C)C)C(C)C` (stereo partly drawn) [N-{1-[(1-sec-Butyl-4-{2-[1-(R)-(4-hydroxy-phenylsulfanyl)-2-phenethylcarbamoyl-ethyl]-pyrrolidin-1-yl}-2-methoxy-4-oxo-butyl)-methyl-carbamoyl]-2-methyl-propyl}-2-dimethylamino-3-methyl-butyramide], for which the IC50 under setting [1] was found to be 0.6 nM. With `CCC(C)C(C(CC(=O)N1CCCC1C(CC(=O)NCCc1ccccc1)SC(C)(C)C)OC)N(C)C(=O)C(NC(=O)C(C(C)C)N(C)C)C(C)C` (centres unmarked) [N-[1-({1-sec-Butyl-4-[2-(1-tert-butylsulfanyl-2-phenethylcarbamoyl-ethyl)-pyrrolidin-1-yl]-2-methoxy-4-oxo-butyl}-methyl-carbamoyl)-2-methyl-propyl]-2-dimethylamino-3-methyl-butyramide], the IC50 under setting [1] was determined as 0.17 nM. As for `CCC(C)C(C(CC(=O)N1CCCC1C(CC(=O)NCCc1cccc(O)c1)SC)OC)N(C)C(=O)C(NC(=O)C(C(C)C)N(C)C)C(C)C` (centres unmarked) [N-(1-{[1-sec-Butyl-4-(2-{2-[2-(3-hydroxy-phenyl)-ethylcarbamoyl]-1-methylsulfanyl-ethyl}-pyrrolidin-1-yl)-2-methoxy-4-oxo-butyl]-methyl-carbamoyl}-2-methyl-propyl)-2-dimethylamino-3-methyl-butyramide], under setting [1], the IC50 worked out at 0.26 nM.
